Measurements reported in patent US20140206682A1, “COMPOUNDS AND COMPOSITIONS AS PDGFR KINASE INHIBITORS” (NOVARTIS PHARMACEUTICALS UK LIMITED, priority 2011, published 2014).
pIC50: −log10 of the molar value.

system: PDGFR; assay: Rat A10 cell proliferation assay; type: cell-based; details: Table 1; Rat A10 cells, recombinant rat PDGF-BB, CellTiter-Glo after 68 hours
Experimental: Compounds of Formula (I) provided herein were assayed to measure their capacity to inhibit c-kit and PDGFR kinases using the appropriate assay described below: c-Kit inhibition was evaluated using the Mo7e cell proliferation assay, and PDGFR inhibition was evaluated using the Rat A10 cell proliferation assay and the Human TG/HA-VSMC cell proliferation assay.
Rat A10 cells (ATCC) were resuspended in DMEM supplemented with 1% FBS and 10 ng/mL recombinant rat PDGF-BB at 20,000 cells/mL. The cells were aliquoted into 384 well plates at 50 μL/well and incubated for 4 hours at 37° C. 0.5 μL of test compound 3-fold serially diluted in DMSO was added to each well. The plates were returned to the incubator for a further 68 hours. 25 μL of CellTiter-Glo (Promega) was added to each well and the plates were incubated on the bench for 15 minutes. Luminescence was then read using a CLIPR CCD camera (Molecular Devices).

| SMILES | pIC50 |
| --- | --- |
| C[C@@]1(O)CCCC[C@@H]1NC(=O)c1ccc(F)c(NC(=O)c2cnc3ccccn23)c1 [F124, N-(2-fluoro-5-{[(1S,2R)-2-hydroxy-2-methylcyclohexyl]carbamoyl}phenyl)imidazo[1,2-a]pyridine-3-carboxamide] | 6.73 |
| Cc1ccn2c(C(=O)Nc3cc(C(=O)N[C@@H](CO)[C@@H](O)c4ccccc4)ccc3F)cnc2c1 [F127, N-(5-{[(1S,2S)-1,3-dihydroxy-1-phenylpropan-2-yl]carbamoyl}-2-fluorophenyl)-7-methylimidazo[1,2-a]pyridine-3-carboxamide] | 7.07 |
| O=C(N[C@H]1CCCC[C@@H]1O)c1ccc(F)c(NC(=O)c2cnc3ccccn23)c1 [F9, N-(2-fluoro-5-{[(1S,2S)-2-hydroxycyclohexyl]carbamoyl}phenyl)imidazo[1,2-a]pyridine-3-carboxamide] | 7.15 |
| Cn1nccc1-c1ccn2c(C(=O)Nc3cc(C(=O)N[C@@H](CO)[C@@H](O)c4ccccc4)ccc3F)cnc2c1 [F128, N-(5-{[(1S,2S)-1,3-dihydroxy-1-phenylpropan-2-yl]carbamoyl}-2-fluorophenyl)-7-(1-methyl-1H-pyrazol-5-yl)imidazo[1,2-a]pyridine-3-carboxamide] | 7.25 |
| O=C(N[C@@H]1CCCC[C@@H]1O)c1ccc(F)c(NC(=O)c2cnc3ccccn23)c1 [F11, N-(2-fluoro-5-{[(1R,2S)-2-hydroxycyclohexyl]carbamoyl}phenyl)imidazo[1,2-a]pyridine-3-carboxamide] | 6.70 |
| Cc1ccc(C(=O)N[C@H]2c3ccccc3C[C@H]2O)cc1NC(=O)c1cnc2ccccn12 [F21, N-(5-{[(1S,2R)-2-hydroxy-2,3-dihydro-1H-inden-1-yl]carbamoyl}-2-methylphenyl)imidazo[1,2-a]pyridine-3-carboxamide] | 7.02 |
| Cc1ccn2c(C(=O)Nc3cc(C(=O)N[C@H]4CCCC[C@@H]4O)ccc3F)cnc2c1 [F115, N-(2-fluoro-5-{[(1S,2S)-2-hydroxycyclohexyl]carbamoyl}phenyl)-7-methylimidazo[1,2-a]pyridine-3-carboxamide] | 7.36 |
| COc1ccc2c(c1)[C@@H](NC(=O)c1ccc(F)c(NC(=O)c3cnc4ccc(C)cn34)c1)[C@@H](O)C2 [F111, N-(2-fluoro-5-{[(1R,2S)-2-hydroxy-6-methoxy-2,3-dihydro-1H-inden-1-yl]carbamoyl}phenyl)-6-methylimidazo[1,2-a]pyridine-3-carboxamide] | 6.71 |
| O=C(N[C@H]1c2ccccc2C[C@H]1O)c1ccc(F)c(NC(=O)c2cnc3ccccn23)c1 [F6, N-(2-fluoro-5-{[(1S,2R)-2-hydroxy-2,3-dihydro-1H-inden-1-yl]carbamoyl}phenyl)imidazo[1,2-a]pyridine-3-carboxamide] | 7.07 |
| O=C(N[C@H]1CCSC[C@H]1O)c1ccc(F)c(NC(=O)c2cnc3ccccn23)c1 [F125, N-(2-fluoro-5-{[(3S,4S)-3-hydroxythian-4-yl]carbamoyl}phenyl)imidazo[1,2-a]pyridine-3-carboxamide] | 7.01 |
| COC[C@H](NC(=O)c1ccc(F)c(NC(=O)c2cnc3ccccn23)c1)[C@@H](O)c1ccccc1 [F117, N-(2-fluoro-5-{[(1S,2S)-1-hydroxy-3-methoxy-1-phenylpropan-2-yl]carbamoyl}phenyl)imidazo[1,2-a]pyridine-3-carboxamide] | 7.89 |
| Cc1ccc(C(=O)N[C@H]2c3ccccc3C[C@@H]2O)cc1NC(=O)c1cnc2ccccn12 [F23, N-(5-{[(1S,2S)-2-hydroxy-2,3-dihydro-1H-inden-1-yl]carbamoyl}-2-methylphenyl)imidazo[1,2-a]pyridine-3-carboxamide] | 7.68 |
| Cc1ccn2c(C(=O)Nc3cc(C(=O)N[C@@H]4c5ccccc5C[C@@H]4O)ccc3F)cnc2c1 [F26, N-(2-fluoro-5-{[(1R,2S)-2-hydroxy-2,3-dihydro-1H-inden-1-yl]carbamoyl}phenyl)-7-methylimidazo[1,2-a]pyridine-3-carboxamide] | 7.31 |
| O=C(N[C@@H]1c2ccccc2C[C@@H]1O)c1ccc(F)c(NC(=O)c2cnc3ccc(F)cn23)c1 [F27, 6-fluoro-N-(2-fluoro-5-{[(1R,2S)-2-hydroxy-2,3-dihydro-1H-inden-1-yl]carbamoyl}phenyl)imidazo[1,2-a]pyridine-3-carboxamide] | 6.77 |
| Cc1ccc(C(=O)NC(CO)c2ccccc2)cc1NC(=O)c1cnc2ccccn12 (stereo not drawn) [F2, N-{5-[(2-hydroxy-1-phenylethyl)carbamoyl]-2-methylphenyl}imidazo[1,2-a]pyridine-3-carboxamide] | 6.84 |

same assay, conditions: Table 2; Rat A10 cells, recombinant rat PDGF-BB, CellTiter-Glo after 68 hours

| SMILES | pIC50 |
| --- | --- |
| O=C(N[C@H](CO)CC1CCCCC1)c1cccc(NC(=O)c2cnc3ccccn23)c1 [F48, N-(3-{[(2S)-1-cyclohexyl-3-hydroxypropan-2-yl]carbamoyl}phenyl)imidazo[1,2-a]pyridine-3-carboxamide] | 6.44 |
| O=C(NCC(O)C(F)(F)F)c1ccc(F)c(NC(=O)c2cnc3ccccn23)c1 (stereo not drawn) [F63, N-{2-fluoro-5-[(3,3,3-trifluoro-2-hydroxypropyl)carbamoyl]phenyl}imidazo[1,2-a]pyridine-3-carboxamide] | 5.97 |
| O=C(NC[C@@H](O)c1cccc(O)c1)c1ccc(F)c(NC(=O)c2cnc3ccccn23)c1 [F97, N-(2-fluoro-5-{[(2S)-2-hydroxy-2-(3-hydroxyphenyl)ethyl]carbamoyl}phenyl)imidazo[1,2-a]pyridine-3-carboxamide] | 6.18 |
| O=C(N[C@@H]1c2cc(Cl)ccc2C[C@@H]1O)c1ccc(F)c(NC(=O)c2cnc3ccc(F)cn23)c1 (stereo in doubt) [F42, N-(5-{[(1R,2S)-6-chloro-2-hydroxy-2,3-dihydro-1H-inden-1-yl]carbamoyl}-2-fluorophenyl)-6-fluoroimidazo[1,2-a]pyridine-3-carboxamide] | 6.56 |
| CSCC[C@@H](CO)NC(=O)c1ccc(F)c(NC(=O)c2cnc3ccccn23)c1 [F96, N-(2-fluoro-5-{[(2S)-1-hydroxy-4-(methylsulfanyl)butan-2-yl]carbamoyl}phenyl)imidazo[1,2-a]pyridine-3-carboxamide] | 6.25 |
| Cc1ccc2ncc(C(=O)Nc3cc(C(=O)N[C@@H]4c5ccccc5C[C@@H]4O)c(C)cc3F)n2c1 [F88, N-(2-fluoro-5-{[(1R,2S)-2-hydroxy-2,3-dihydro-1H-inden-1-yl]carbamoyl}-4-methylphenyl)-6-methylimidazo[1,2-a]pyridine-3-carboxamide] | 5.66 |
| O=C(N[C@@H](CO)c1ccccc1)c1ccc(F)c(NC(=O)c2cnc3ccccn23)c1 [F86, N-(2-fluoro-5-{[(1R)-2-hydroxy-1-phenylethyl]carbamoyl}phenyl)imidazo[1,2-a]pyridine-3-carboxamide] | 5.82 |
| O=C(N[C@@H]1c2ccccc2C[C@@H]1O)c1ccc(F)c(NC(=O)c2cnc3ccc(-n4ccnc4)cn23)c1 (stereo in doubt) [F72, N-(2-fluoro-5-{[(1R,2S)-2-hydroxy-2,3-dihydro-1H-inden-1-yl]carbamoyl}phenyl)-6-(1H-imidazol-1-yl)imidazo[1,2-a]pyridine-3-carboxamide] | 5.54 |
| Cc1ccc2ncc(C(=O)Nc3cc(C(=O)N[C@H]4c5ccccc5C[C@H]4O)ccc3F)n2c1 [F36, N-(2-fluoro-5-{[(1S,2R)-2-hydroxy-2,3-dihydro-1H-inden-1-yl]carbamoyl}phenyl)-6-methylimidazo[1,2-a]pyridine-3-carboxamide] | 6.63 |
| O=C(NCC1(O)CCCCC1)c1cccc(NC(=O)c2cnc3ccccn23)c1 [F64] | 5.96 |
| O=C(N[C@@H]1CCCC(F)(F)[C@H]1O)c1ccc(F)c(NC(=O)c2cnc3ccccn23)c1 [F99, N-(5-{[(1R,2S)-3,3-difluoro-2-hydroxycyclohexyl]carbamoyl}-2-fluorophenyl)imidazo[1,2-a]pyridine-3-carboxamide] | 6.49 |
| O=C(N[C@H]1CCCC[C@H]1CO)c1ccc(F)c(NC(=O)c2cnc3ccccn23)c1 [F59] | 6.22 |
| [2H]c1c([2H])c([2H])n2c(C(=O)Nc3cc(C(=O)N[C@@H]4c5ccccc5C[C@@H]4O)ccc3F)cnc2c1[2H] [F83, N-(2-fluoro-5-{[(1R,2S)-2-hydroxy-2,3-dihydro-1H-inden-1-yl]carbamoyl}phenyl)-5,6,7,8-tetrahydrogenioimidazo[1,2-a]pyridine-3-carboxamide] | 6.54 |
| CC(C)(CO)NC(=O)c1ccc(F)c(NC(=O)c2cnc3ccccn23)c1 [F98, N-{2-fluoro-5-[(1-hydroxy-2-methylpropan-2-yl)carbamoyl]phenyl}imidazo[1,2-a]pyridine-3-carboxamide] | < 5.00 |
| O=C(N[C@H]1CC[C@@H](O)CC1)c1ccc(F)c(NC(=O)c2cnc3ccccn23)c1 [F104, N-{2-fluoro-5-[(4-hydroxycyclohexyl)carbamoyl]phenyl}imidazo[1,2-a]pyridine-3-carboxamide] | < 5.00 |
| Cc1ccc2ncc(C(=O)Nc3cc(C(=O)N[C@@H]4c5ccc(Cl)cc5C[C@@H]4O)ccc3F)n2c1 (stereo in doubt) [F41, N-(5-{[(1R,2S)-5-chloro-2-hydroxy-2,3-dihydro-1H-inden-1-yl]carbamoyl}-2-fluorophenyl)-6-methylimidazo[1,2-a]pyridine-3-carboxamide] | 6.57 |
| O=C(N[C@H]1c2ccccc2C[C@H]1O)c1ccc(F)c(NC(=O)c2cnc3cc(N4CCOCC4)ccn23)c1 [F71, N-(2-fluoro-5-{[(1S,2R)-2-hydroxy-2,3-dihydro-1H-inden-1-yl]carbamoyl}phenyl)-7-(morpholin-4-yl)imidazo[1,2-a]pyridine-3-carboxamide] | 5.66 |
| O=C(NCC1(O)CCC1)c1ccc(F)c(NC(=O)c2cnc3ccccn23)c1 [F91, N-(2-fluoro-5-{[(1-hydroxycyclobutyl)methyl]carbamoyl}phenyl)imidazo[1,2-a]pyridine-3-carboxamide] | 5.76 |
